# Measured values taken from patent US20220348558A1, “INHIBITORS OF ENCEPHALITIC ALPHAVIRUSES” (priority 2019, published 2022).
# Assays:
# VEEV TC83 = assay: microbe, parasite or virus in culture; format: cell-based; conditions: Venezuelan equine encephalitis virus, Vero 76, 48 h, read-out: VEEV TC83 EC50 nM
# WEEV California = assay: microbe, parasite or virus in culture; format: cell-based; conditions: Western equine encephalitis virus, Vero 76, 48 h, read-out: WEEV California EC50 nM
Compound,EC50 (VEEV TC83) [nM],EC50 (WEEV California) [nM]
"COCCOc1c(F)cc(-n2c(C3CCCN3)nc3c(-c4ccnc(C)c4)cc(C#N)cc3c2=O)cc1F (centres unmarked) [Example 161, 3-(3,5-Difluoro-4-(2-methoxyethoxy)phenyl)-8-(2-methylpyridin-4-yl)-4-oxo-2-(pyrrolidin-2-yl)-3,4-dihydroquinazoline-6-carbonitrile]",51 to 150,151 to 500
"COc1ccc(-n2c([C@@H]3CCCN3)nc3c(C)cc([N+](=O)[O-])cc3c2=O)cc1 [Example 56, (S)-3-(4-methoxyphenyl)-8-methyl-6-nitro-2-(pyrrolidin-2-yl) quinazolin-4 (3H)-one]",1 to 50,51 to 150
"N#Cc1cccc(-n2c([C@H]3CCCN3)nc3ccc([N+](=O)[O-])cc3c2=O)c1 [Example 21, (R)-3-(6-nitro-4-oxo-2-(pyrrolidin-2-yl)quinazolin-3 (4H)-yl)benzonitrile]",> 1000,> 1000
"COc1ccc(-n2c([C@H]3CCCN3)nc3c(-c4cccnc4)cc([N+](=O)[O-])cc3c2=O)cc1F [Example 81, (R)-3-(3-fluoro-4-methoxyphenyl)-6-nitro-8-(pyridin-3-yl)-2-(pyrrolidin-2-yl) quinazolin-4 (3H)-one]",1 to 50,1 to 50
"COc1ccc(-n2c(C3CCCN3)nc3c(-c4ccc(N5CCOCC5)cc4)cc(C#N)cc3c2=O)cc1F (centres unmarked) [Example 153, 3-(3-Fluoro-4-methoxyphenyl)-8-(4-morpholinophenyl)-4-oxo-2-(pyrrolidin-2-yl)-3,4-dihydroquinazoline-6-carbonitrile]",1 to 50,1 to 50
"COc1ccc(-n2c([C@@H]3CCNC3)nc3ccc([N+](=O)[O-])cc3c2=O)cc1 [Example 19, (R)-3-(4-methoxyphenyl)-6-nitro-2-(pyrrolidin-3-yl)quinazolin-4 (3H)-one]",1 to 50,151 to 500
"COc1ccc(-n2c([C@H]3CCCN3)nc3cccc([N+](=O)[O-])c3c2=O)cc1 [Example 49, (R)-3-(4-methoxyphenyl)-5-nitro-2-(pyrrolidin-2-yl)quinazolin-4 (3H)-one]",> 1000,> 1000
"COc1cccc(-c2cc(C#N)cc3c(=O)n(-c4ccc(OC)c(F)c4)c(C4CCCN4)nc23)c1 (centres unmarked) [Example 148, 3-(3-Fluoro-4-methoxyphenyl)-8-(3-methoxyphenyl)-4-oxo-2-(pyrrolidin-2-yl)-3,4-dihydroquinazoline-6-carbonitrile]",1 to 50,1 to 50
"COc1ccc(-n2c(C3CCCN3)nc3c(-c4ccc(N(C)C)nc4)cc(C#N)cc3c2=O)cc1F (centres unmarked) [Example 130, 8-(6-(dimethylamino)pyridin-3-yl)-3-(3-fluoro-4-methoxyphenyl)-4-oxo-2-(pyrrolidin-2-yl)-3,4-dihydroquinazoline-6-carbonitrile]",1 to 50,1 to 50
"COc1c(F)cc(-n2c([C@H]3CCCN3)nc3c(-c4ccc(C)nc4)cc(C#N)cc3c2=O)cc1F [Example 119, (R)-3-(3,5-difluoro-4-methoxyphenyl)-8-(6-methylpyridin-3-yl)-4-oxo-2-(pyrrolidin-2-yl)-3,4-dihydroquinazoline-6-carbonitrile]",1 to 50,1 to 50
"COc1ccc(-n2c([C@H]3CCCN3)nc3c(Br)cc(C#N)cc3c2=O)cc1F [Example 96, (R)-8-bromo-3-(3-fluoro-4-methoxyphenyl)-4-oxo-2-(pyrrolidin-2-yl)-3,4-dihydroquinazoline-6-carbonitrile]",1 to 50,1 to 50
"COc1ccc(-n2c([C@@H](C)N(C)C)nc3ccc([N+](=O)[O-])cc3c2=O)cc1 [Example 209, (R)-2-(1-(dimethylamino)ethyl)-3-(4-methoxyphenyl)-6-nitroquinazolin-4 (3H)-one]",51 to 150,151 to 500
"COc1ccc(-n2c([C@@H]3CCCN3)nc3c(-c4cccnc4)cc([N+](=O)[O-])cc3c2=O)cc1F [Example 83, (S)-3-(3-fluoro-4-methoxyphenyl)-6-nitro-8-(pyridin-3-yl)-2-(pyrrolidin-2-yl) quinazolin-4 (3H)-one]",1 to 50,1 to 50
"O=c1c2cc([N+](=O)[O-])ccc2nc(C2CCCN2)n1-c1cccc(Cl)c1 (centres unmarked) [Example 39, 3-(3-chlorophenyl)-6-nitro-2-(pyrrolidin-2-yl) quinazolin-4 (3H)-one]",51 to 150,> 1000
"COc1ccc(-n2c([C@H]3CCCN3)nc3c(N4CCOCC4)cc(C#N)cc3c2=O)cc1F [Example 113, (R)-3-(3-fluoro-4-methoxyphenyl)-8-morpholino-4-oxo-2-(pyrrolidin-2-yl)-3,4-dihydroquinazoline-6-carbonitrile]",1 to 50,51 to 150
"COc1ccc(-n2c([C@@H]3CCCN3)nc3c(-c4cccnc4)cc(C#N)cc3c2=O)cc1F [Example 108, (S)-3-(3-fluoro-4-methoxyphenyl)-4-oxo-8-(pyridin-3-yl)-2-(pyrrolidin-2-yl)-3,4-dihydroquinazoline-6-carbonitrile]",1 to 50,1 to 50

Compound,EC50 (VEEV TC83) [nM],EC50 (WEEV California) [nM]
"COc1ccc(-n2c([C@]3(C)CCCN3)nc3c(-c4ccc(C)nc4)cc(C#N)cc3c2=O)cc1F [Example 142, (S)-3-(3-fluoro-4-methoxyphenyl)-8-(6-methylpyridin-3-yl)-2-(2-methylpyrrolidin-2-yl)-4-oxo-3,4-dihydroquinazoline-6-carbonitrile]",1 to 50,1 to 50
"COc1ccc(-n2c([C@H]3CCCN3)nc3c(-c4ccc(F)nc4)cc(C#N)cc3c2=O)cc1F [Example 99, (R)-3-(3-fluoro-4-methoxyphenyl)-8-(6-fluoropyridin-3-yl)-4-oxo-2-(pyrrolidin-2-yl)-3,4-dihydroquinazoline-6-carbonitrile]",1 to 50,1 to 50
"Cc1ccc(-c2cc(C#N)cc3c(=O)n(-c4ccc(N5CCOCC5)c(F)c4)c(C4CCCN4)nc23)cn1 (centres unmarked) [Example 146, 3-(3-Fluoro-4-morpholinophenyl)-8-(6-methylpyridin-3-yl)-4-oxo-2-(pyrrolidin-2-yl)-3,4-dihydroquinazoline-6-carbonitrile]",151 to 500,501 to 1000
"COc1ccc(-n2c([C@H]3CCCN3)nc3c(C(F)(F)F)cc(C#N)cc3c2=O)cc1 [Example 74, (R)-3-(4-methoxyphenyl)-4-oxo-2-(pyrrolidin-2-yl)-8-(trifluoromethyl)-3,4-dihydroquinazoline-6-carbonitrile]",1 to 50,1 to 50
"COc1c(F)cc(-n2c(C34CC(CN3)C4)nc3c(-c4cnc(C)c(C)c4)cc(C#N)cc3c2=O)cc1F [Example 176, 2-(2-azabicyclo[2.1.1]hexan-1-yl)-3-(3,5-difluoro-4-methoxyphenyl)-8-(5,6-dimethylpyridin-3-yl)-4-oxo-3,4-dihydroquinazoline-6-carbonitrile]",1 to 50,1 to 50
"COc1c(F)cc(-n2c(C3CCNC3)nc3c(-c4ccc(C)nc4)cc(C#N)cc3c2=O)cc1F (centres unmarked) [Example 188, 3-(3,5-difluoro-4-methoxyphenyl)-8-(6-methylpyridin-3-yl)-4-oxo-2-(pyrrolidin-3-yl)-3,4-dihydroquinazoline-6-carbonitrile]",1 to 50,1 to 50
"COc1ccc(-n2c(-c3cncn3C)nc3c(-c4ccc(C)nc4)cc(C#N)cc3c2=O)cc1F [Example 201, 3-(3-fluoro-4-methoxyphenyl)-2-(1-methyl-1H-imidazol-5-yl)-8-(6-methylpyridin-3-yl)-4-oxo-3,4-dihydroquinazoline-6-carbonitrile]",> 1000,> 1000
"COc1ccc(-n2c([C@@H]3CCCN3)nc3ccc([N+](=O)[O-])cc3c2=O)cc1 [Example 12, (S)-3-(4-methoxyphenyl)-6-nitro-2-(pyrrolidin-2-yl) quinazolin-4 (3H)-one]",1 to 50,151 to 500
"COc1ccc(-n2c(C3CCCN3)nc3c(-c4cnc5ccccc5c4)cc(C#N)cc3c2=O)cc1F (centres unmarked) [Example 123, 3-(3-fluoro-4-methoxyphenyl)-4-oxo-2-(pyrrolidin-2-yl)-8-(quinolin-3-yl)-3,4-dihydroquinazoline-6-carbonitrile]",1 to 50,1 to 50
"O=c1c2cc([N+](=O)[O-])ccc2nc([C@H]2CCCN2)n1-c1ccc(OC(F)(F)F)cc1 [Example 44, (R)-6-nitro-2-(pyrrolidin-2-yl)-3-(4-(trifluoromethoxy)phenyl)quinazolin-4 (3H)-one]",> 1000,> 1000
"COc1c(F)cc(-n2c(C3CCCN3)nc3c(-c4ccnc(C)c4)cc(C#N)cc3c2=O)cc1F (centres unmarked) [Example 155, 3-(3,5-Difluoro-4-methoxyphenyl)-8-(2-methylpyridin-4-yl)-4-oxo-2-(pyrrolidin-2-yl)-3,4-dihydroquinazoline-6-carbonitrile]",1 to 50,1 to 50
"COc1ccc(-n2c([C@@H]3CCCN3)nc3c(-c4ccncc4)cc(C#N)cc3c2=O)cc1F [Example 110, (S)-3-(3-fluoro-4-methoxyphenyl)-4-oxo-8-(pyridin-4-yl)-2-(pyrrolidin-2-yl)-3,4-dihydroquinazoline-6-carbonitrile]",1 to 50,1 to 50
"COc1ccc(-n2c([C@@H]3CCCN3)nc3c(C(F)(F)F)cc(C#N)cc3c2=O)cc1 [Example 75, (S)-3-(4-methoxyphenyl)-4-oxo-2-(pyrrolidin-2-yl)-8-(trifluoromethyl)-3,4-dihydroquinazoline-6-carbonitrile]",51 to 150,51 to 150
"N#Cc1ccc(-n2c([C@H]3CCCN3)nc3ccc([N+](=O)[O-])cc3c2=O)cc1 [Example 20, (R)-4-(6-nitro-4-oxo-2-(pyrrolidin-2-yl)quinazolin-3 (4H)-yl)benzonitrile]",1 to 50,51 to 150
"COc1ccc(-n2c([C@H]3CCCN3)nc3c(C(F)(F)F)cc(C#N)cc3c2=O)cc1F [Example 76, (R)-3-(3-fluoro-4-methoxyphenyl)-4-oxo-2-(pyrrolidin-2-yl)-8-(trifluoromethyl)-3,4-dihydroquinazoline-6-carbonitrile]",1 to 50,1 to 50
